In experiment [1] the target is T1, RIPK1 kinase (Homo sapiens, UniProt Q13546).
T1 construct: purchased Promega VA7593
T1 sequence (Q13546 1-671): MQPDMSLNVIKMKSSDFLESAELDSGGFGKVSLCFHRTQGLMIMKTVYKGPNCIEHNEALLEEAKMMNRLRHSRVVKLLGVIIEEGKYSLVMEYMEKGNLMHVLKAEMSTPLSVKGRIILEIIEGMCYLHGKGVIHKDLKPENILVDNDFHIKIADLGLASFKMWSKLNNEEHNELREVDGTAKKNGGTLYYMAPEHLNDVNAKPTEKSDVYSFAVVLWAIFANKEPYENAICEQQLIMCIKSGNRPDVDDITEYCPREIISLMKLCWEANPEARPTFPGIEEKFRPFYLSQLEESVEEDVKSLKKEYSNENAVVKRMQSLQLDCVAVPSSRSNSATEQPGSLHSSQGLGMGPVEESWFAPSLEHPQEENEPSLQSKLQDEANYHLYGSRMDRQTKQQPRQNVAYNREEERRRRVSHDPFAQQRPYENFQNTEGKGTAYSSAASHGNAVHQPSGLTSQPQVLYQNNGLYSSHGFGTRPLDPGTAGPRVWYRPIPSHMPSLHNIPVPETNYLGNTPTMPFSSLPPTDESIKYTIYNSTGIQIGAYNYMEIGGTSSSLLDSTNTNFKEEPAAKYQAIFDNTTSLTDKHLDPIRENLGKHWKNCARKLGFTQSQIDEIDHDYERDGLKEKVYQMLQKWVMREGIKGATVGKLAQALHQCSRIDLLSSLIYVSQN
The experiment in a line: In vitro RIPK1 kinase activity assay (ADP-Glo), inhibition by compounds at 1 μM. The format is biochemical. Conditions: compound 1 μM; ATP 10 μM; MBP substrate 100 μg/mL; read-out: RIPK1 kinase activity inhibition rate range. In outline: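 Read by ADP-Glo chemiluminescence as percent inhibition: RIPK1 kinase, 15-min room-temperature compound preincubation, then 1-h reaction with MBP (100 μg/mL final) and ATP (10 μM final). Enzyme level was set by titration.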
Background: In ADP-Glo the light output rises with the ADP produced.

Experiment [2] has as its system U937 cells. Kind of experiment: Inhibition rate of compound (1 μM) on necroptosis of U937 cells (TSZ-induced, CellTiter-Glo). In kind it is cell-based. Conditions: TSZ (hTNF-α, SM-164, Z-VAD-FMK) 20 hours. In outline: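 Percent inhibition comes from ATP luminescence (CellTiter-Glo), referenced to wells without TSZ and wells with TSZ alone. The compound was added to U937 cells 15 min ahead of a TNF-α/SM-164/Z-VAD-FMK mix, followed by 20 h culture at 37° C, 5% CO2.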
In general terms: In ATP-based viability assays light output follows the ATP content of the culture.

Experiment [3] relates to U937 cells. The experiment in a line: EC50 of necroptosis inhibition in U937 cells (TSZ-induced, CellTiter-Glo). The format is cell-based. To be noted: Homo sapiens, U-937; TSZ (hTNF-α, SM-164, Z-VAD-FMK) 20 hours; 10 concentration points; read-out: EC50 intervals of necroptosis inhibition in U937 cells. In outline: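 Luminescent ATP readout (CellTiter-Glo) after 20 h gave viability of TSZ-challenged U937 cells; compounds were added 15 min ahead of TNF-α/SM-164/Z-VAD-FMK. EC50 derived by variable-slope nonlinear regression of inhibition relative to no-TSZ and TSZ-alone controls.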

Where only a bound is given, the exact number is not on record here.

Regarding `CN1CCC(C#Cc2ccc3c(c2)N(C)C(=O)[C@@H](NC(=O)C(=O)NCCc2ccccc2)CO3)CC1` [Example 73, (S)—N^1-(5-methyl-7-((1-methylpiperidin-4-yl)ethynyl)-4-oxo-2,3,4,5-tetrahydrobenzo[b][1,4]oxazepin-3-yl)-N^2-phenethyloxalamide], the inhibition at 1 µM in experiment [1] is no less than 75%. Also, in experiment [2], the “Inhibition rate range of compounds (1 μM) on U937 cell necroptosis” value (from here on “Inhibition rate range of compounds”) is listed as “A (A: ≥90%)”. Besides, in experiment [3], the half-maximal effective concentration (EC50) was less than 100 nM.
With `CN(C)c1ccc(C#Cc2ccc3c(c2)N(C)C(=O)[C@@H](NC(=O)C(=O)NCCc2ccccc2)CO3)cc1` [Example 75, (S)—N^1-(7-((4-(dimethylamino)phenyl)ethynyl)-5-methyl-4-oxo-2,3,4,5-tetrahydrobenzo[b][1,4]oxazepin-3-yl)-N^2-phenethyloxalamide], the inhibition at 1 µM in experiment [1] was 25 to 49%. In experiment [2], the “Inhibition rate range of compounds” value was “A (A: ≥90%)”. Moreover, in experiment [3], the EC50 was less than 100 nM.
`CN1C(=O)[C@@H](NC(=O)C(=O)NCCc2ccccc2)COc2ccc(C#CCN3CCN(CCO)CC3)cc21` [Example 83, (S)—N^1-(7-(3-(4-(2-hydroxyethyl)piperazin-1-yl)prop-1-yn-1-yl)-5-methyl-4-oxo-2,3,4,5-tetrahydrobenzo[b][1,4]oxazepin-3-yl)-N^2-phenethyloxalamide]: in experiment [1], the inhibition at 1 µM is no less than 75%. Besides, in experiment [2], the “Inhibition rate range of compounds” value is “A (A: ≥90%)”. Moreover, the EC50 in experiment [3] is less than 100 nM.
Regarding `CN1C(=O)[C@@H](NC(=O)C(=O)NCCc2ccccc2)COc2ccc(C#CCN)cc21.Cl` [Example 87, (S)—N^1-(7-(3-aminoprop-1-yn-1-yl)-5-methyl-4-oxo-2,3,4,5-tetrahydrobenzo[b][1,4]oxazepin-3-yl)-N^2-phenethyloxalamide hydrochloride], the inhibition at 1 µM in experiment [1] was 25 to 49%. Moreover, the “Inhibition rate range of compounds” value in experiment [2] was “B (B: 50-89%)”. For the same compound, the EC50 in experiment [3] was in the range of 500 to 2000 nM.
As to `CC(=O)N1CC(O)(C#Cc2ccc3c(c2)N(C)C(=O)[C@@H](NC(=O)C(=O)NCCc2ccccc2)CO3)C1` [Example 93, (S)—N^1-(7-((1-acetyl-3-hydroxyazetidin-3-yl)ethynyl)-5-methyl-4-oxo-2,3,4,5-tetrahydrobenzo[b][1,4]oxazepin-3-yl)-N^2-phenethyloxalamide], the inhibition at 1 µM in experiment [1] is no less than 75%. The “Inhibition rate range of compounds” value in experiment [2] was “A (A: ≥90%)”. In experiment [3], the concentration for a half-maximal effect (EC50) was 100 to 500 nM.
As to `CN1C(=O)[C@@H](NC(=O)C(=O)NCCc2ccccc2)COc2ccc(C#CCCC(=O)O)cc21` [Example 95, (S)-5-(5-methyl-4-oxo-3-(2-oxo-2-(phenethylamino)acetamido)-2,3,4,5-tetrahydrobenzo[b][1,4]oxazepin-7-yl) pent-4-ynoic acid], the inhibition at 1 µM in experiment [1] was no less than 75%. Besides, the “Inhibition rate range of compounds” value in experiment [2] is given as “B (B: 50-89%)”. In experiment [3], the concentration giving a half-maximal response (EC50) is 500 to 2000 nM.
Turning to `CN1C(=O)[C@@H](NC(=O)C(=O)NCCc2cccc(F)c2)COc2ccccc21` [Example 100, (S)—N^1-(3-fluorophenethyl)-N^2-(5-methyl-4-oxo-2,3,4,5-tetrahydrobenzo[b][1,4]oxazepin-3-yl)oxamalide], the inhibition at 1 µM in experiment [1] was no less than 75%. Also, in experiment [2], the “Inhibition rate range of compounds” value is “B (B: 50-89%)”. For the same compound, in experiment [3], the concentration giving a half-maximal response (EC50) fell in the range of 100 to 500 nM.
For `CN1C(=O)[C@@H](NC(=O)C(=O)NCc2cc(F)cc(F)c2)COc2ccccc21` [Example 102, (S)—N^1-(3,5-difluorobenzyl)-N^2-(5-methyl-4-oxo-2,3,4,5-tetrahydrobenzo[b][1,4]oxazepin-3-yl)oxalamide], in that order: 25 to 49%, “B (B: 50-89%)” and 500 to 2000 nM.
On the same counts, the results for `CN1C(=O)[C@@H](NC(=O)C(=O)NCc2ccccc2)COc2ccc(C#CCN3CCC(O)CC3)cc21` [Example 105, (S)—N^1-benzyl-N^2-(7-(3-(4-hydroxypiperidin-1-yl)prop-1-yn-1-yl)-5-methyl-4-oxo-2,3,4,5-tetrahydrobenzo[b][1,4]oxazepin-3-yl)oxalamide] are no less than 75%, “A (A: ≥90%)” and less than 100 nM.
For the compound `Cc1ccccc1CNC(=O)C(=O)N[C@H]1COc2ccc(C#CCN3CCNC(=O)C3)cc2N(C)C1=O` [Example 108, (S)—N^1-(5-methyl-4-oxo-7-(3-(3-oxopiperazin-1-yl)prop-1-yn-1-yl)-2,3,4,5-tetrahydrobenzo[b][1, 4]oxazepin-3-yl)-N^2-(2-methylbenzyl)oxalamide], in experiment [1], the inhibition at 1 µM was no less than 75%. In experiment [2], the “Inhibition rate range of compounds” value was “A (A: ≥90%)”. The EC50 in experiment [3] is less than 100 nM.
As for `CN1C(=O)[C@@H](NC(=O)C(=O)NCCc2cccc(F)c2)COc2ccc(C#CC3CCCNC3)cc21` (stereo partly drawn) [Example 116, N^1-(3-fluorophenethyl)-N^2-((3S)-5-methyl-4-oxo-7-(piperidin-3-ylethynyl)-2,3,4,5-tetrahydrobenzo[b][1,4]oxazepin-3-yl)oxalamide], the inhibition at 1 µM in experiment [1] lay in the range of 50 to 74%. For the same compound, the “Inhibition rate range of compounds” value in experiment [2] is listed as “A (A: ≥90%)”. The EC50 in experiment [3] is 100 to 500 nM.
`CN1C(=O)[C@@H](NC(=O)C(=O)NCCc2cccc(F)c2)COc2ccc(C#CCN3CCC(=O)C3)cc21` [Example 119, (S)—N^1-(3-fluorophenethyl)-N^2-(5-methyl-4-oxo-7-(3-(3-oxopyrrolidin-1-yl)prop-1-yn-1-yl)-2,3,4,5-tetrahydrobenzo[b][1,4]oxazepin-3-yl)oxalamide]: the inhibition at 1 µM in experiment [1] lay in the range of 25 to 49%. In addition, the “Inhibition rate range of compounds” value in experiment [2] is on record as “A (A: ≥90%)”. Moreover, the EC50 in experiment [3] was less than 100 nM.
Regarding `CN1C(=O)[C@@H](NC(=O)C(=O)NCCc2cccc(F)c2)COc2ccc(C#CCN3CCN(CCO)CC3)cc21` [Example 121, (S)—N^1-(3-fluorophenethyl)-N^2-(7-(3-(4-(2-hydroxyethyl)piperazin-1-yl)prop-1-yn-1-yl)-5-methyl-4-oxo-2,3,4,5-tetrahydrobenzo[b][1,4]oxazepin-3-yl)oxalamide], the inhibition at 1 µM in experiment [1] was no less than 75%. Further, the “Inhibition rate range of compounds” value in experiment [2] was “B (B: 50-89%)”. Besides, the EC50 in experiment [3] is less than 100 nM.
In the case of `C[C@H](NC(=O)C(=O)N[C@H]1COc2ccc(C#CCCO)cc2N(C)C1=O)c1ccccc1` [Example 124, N^1-((S)-7-(4-hydroxybut-1-yn-1-yl)-5-methyl-4-oxo-2,3,4,5-tetrahydrobenzo[b][1,4]oxazepin-3-yl)-N^2-((S)-1-phenylethyl)oxalamide], the inhibition at 1 µM in experiment [1] is 50 to 74%. In addition, in experiment [2], the “Inhibition rate range of compounds” value is on record as “A (A: ≥90%)”. For the same compound, in experiment [3], the EC50 is 100 to 500 nM.
Consider `C[C@@H](NC(=O)C(=O)N[C@H]1COc2ccc(C#CC3COC3)cc2N(C)C1=O)c1ccccc1` [Example 131, (S)—N^1-(5-methyl-7-(oxetan-3-ylethynyl)-4-oxo-2,3,4,5-tetrahydrobenzo[b][1,4]oxazepin-3-yl)-N^2-((R)-1-phenylethyl)oxalamide], for which, in experiment [1], the inhibition at 1 µM is no less than 75%. The “Inhibition rate range of compounds” value in experiment [2] is recorded as “A (A: ≥90%)”. The EC50 in experiment [3] was less than 100 nM.
On the same counts, the results for `C[C@@H](NC(=O)C(=O)N[C@H]1COc2ccc(C#CCn3ccnc3)cc2N(C)C1=O)c1ccccc1` [Example 134, N^1-((S)-7-(3-(1H-imidazol-1-yl)prop-1-yn-1-yl)-5-methyl-4-oxo-2,3,4,5-tetrahydrobenzo[b][1,4]oxazepin-3-yl)-N^2-((R)-1-phenylethyl)oxalamide] are 50 to 74%, “A (A: ≥90%)” and less than 100 nM.
`C[C@@H](NC(=O)C(=O)N[C@H]1COc2ccc(C#CC3CCNCC3)cc2N(C)C1=O)c1ccccc1` [Example 135, N^1-((S)-5-methyl-4-oxo-7-(piperidin-4-ylethynyl)-2,3,4,5-tetrahydrobenzo[b][1,4]oxazepin-3-yl)-N^2-((R)-1-phenylethyl)oxalamide]: in experiment [1], the inhibition at 1 µM lay in the range of 25 to 49%. Besides, the “Inhibition rate range of compounds” value in experiment [2] is reported as “A (A: ≥90%)”. Further, in experiment [3], the EC50 was less than 100 nM.

Usually inhibition stands for the percentage by which the read-out fell short of the control. The term EC50 denotes the concentration at which the effect is half-maximal.

The values above are taken from US20250368633A1, “AZEPINE FUSED RING COMPOUND AS RIPK1 INHIBITOR AND USE THEREOF” (ARTIVILA BIOPHARMA, priority 2022, published 2025).
